Key:
interface cells [1] = assay: Effect of contrast medium on interface cells, WST-1 viability; format: cell-based, human; details: 4 hours exposure, 0-50% contrast medium, viability after 3 more days; p=0.563
Protocol: Interface cells were seeded in 96-wells plates. Into each well 50 μl of IMDM/20% FCS and 50 μl of a solution containing contrast medium and 0.9% NaCl in various concentrations (0, 12.5, 25, and 50% contrast medium) were added. The contrast medium used was the low-osmolarity, nonionic dimer iotrolan (Isovist; Schering, Berlin, Germany). After four hours of exposure to the contrast medium, the cells were washed twice and incubated in IMDM/10% FCS. The cells were cultured for three more days, changing the culture medium every day. On day four, cell viability was determined with the WST-1 cell viability assay kit (Roche, Mannheim, Germany) according to the manufacturers protocol.

interface cells [2] = assay: Effect of contrast medium on HAdV-5 transduction of interface cells; format: cell-based, human; details: contrast medium concentration of 50%, 4 hours; p<0.001
Protocol: Interface cells were seeded in 96-wells plates. After overnight incubation cells were infected with Ad.CMV.LacZ (concentrations of 0, 25, 100, and 200 pfu/cell) in IMDM/20% FCS, 50 μl per well. Fifty μl Iotrolan (Isovist) in 0.9% NaCl was added in concentrations of 0, 25, 50, and 100%. (When diluted in the culture medium these concentrations decreased to 0, 12.5, 25, and 50%.) Four hours after infection, the cells were washed twice with IMDM and incubated for the rest of the day in IMDM/10% FCS at 37° C. and 5% CO2. The Ad.CMV.LacZ transduced cells were cultured for three days after removal of the vector and contrast medium. Subsequently, the cells were fixed and stained for β-galactasidase activity. The transduction rate was assessed as described above.

[3] = Djeha et al, 2001; cited from earlier work
loosened hip prosthesis = assay: Phase-1 clinical study: intra-articular vector, prodrug, then cement injection; details: Patient 1, twelve hours after prodrug injection
Protocol: After 48 hours, to allow transduction of target cells and expression of the nitroreductase transgene, CB1954 (at a dosage of 24 mg m^−2) is injected intra-articularly.

interface cells [4] = assay: NTR/CB1954 cell killing in the presence of, or after transient exposure to, contrast medium; format: cell-based, human; details: results not shown
From the text: The effect of contrast medium (iotrolan) on HAdV5-transduction of interface cells was investigated with Ad.CMV.LacZ. Transducibility of the cells increases with the concentration of HAdV-5 vector. However, the contrast medium has restraining influence on the transduction efficiency. With higher concentrations of iotrolan, the HAdV-5 vector concentration has less effect on gene transfer efficiency. […] The effect of iotrolan on the transduction is statistically significant (p<0.001). Furthermore, differences between cells from different individuals (n=6) have been observed. To evaluate the effect of contrast medium on cell killing by NTR/CB1954, the previously described experiment for the efficiency of cell killing was repeated in the presence of contrast medium. […] This incompatibility may be due to the presence of iodine within the contrast media. Screening of all available contrast media may allow determination of a contrast medium compatible with viral transduction.
The influence of transient exposure to contrast medium on the transduction of interface cells was investigated. Interface cells were exposed to contrast medium for 0 to 120 minutes and the period between washing away of the contrast medium and performing the NTR/CB1954 cell killing approach was varied. […]

interface cells [5] = assay: Transduction and cell killing assay: CTL102 infection, then CB1954, WST metabolic activity readout; format: cell-based, human
Protocol: Cell viability was then determined using a metabolic activity assay.
For all experiments described, interface cells were used. Interface tissue was removed from the periprosthetic space during revision-surgery by an orthopedic surgeon and collected in sterile phosphate buffered saline (PBS). Connective tissue and fat were removed thoroughly and the interface tissue was digested for at least two hours at 37° C. using collagenase 1A (1 mg/ml; Sigma, St Louis, Mo., USA). Cells were then harvested by filtering the tissue/collagenase substance through a 200 μm filter (NPBI, Emmer-Compascuum, The Netherlands). The cells were cultured in 75 cm^2 flasks (Cellstar, Greiner, Alphen aan de Rijn, The Netherlands) with Iscove's modified Dulbecco's medium (IMDM; Biowitthaker, Verviers, Belgium), supplemented with glutamax (GibcoBRL, Paisley, UK), penicillin and streptomycin (Boehringer Mannheim, Germany), and 10% fetal calf serum (FCS; GibcoBRL, Paisley, UK) at 37° C. and 5% CO2.
Before each experiment interface cells were detached from the flasks using 0.25% trypsin (GibcoBRL, Paisley, UK). The cells were counted in a bürker counter and death cells were excluded by trypan blue. Cells were seeded in a 96 wells-plate (flat bottom) at a density of 5,000 cells per well. Cells were incubated overnight to allow attachment to the bottom. […]
Hereafter the absorbance at 415 nm was measured.

Row | SMILES | effect on viability of interface cells (interface cells [1]) | transduction of interface cells by Ad.CMV.LacZ (interface cells [2]) | tolerability in man [3] | nausea (loosened hip prosthesis) [WHO grade] | cell killing by NTR/CB1954 (interface cells [4]) | killing of interface cells (interface cells [5]; 200 virus pfu/cell and CB1954 50 μM, cells from two revision surgery patients) [%] | dose dependence of killing (interface cells [5]; CTL102 0-200 IU/cell, CB1954 0-50 μM, cells from both patients)
1 | CN(C(=O)CC(=O)N(C)c1c(I)c(C(=O)NC(CO)C(O)CO)c(I)c(C(=O)NC(CO)C(O)CO)c1I)c1c(I)c(C(=O)NC(CO)C(O)CO)c(I)c(C(=O)NC(CO)C(O)CO)c1I (stereo not shown) [iotrolan] | does not affect the viability of the cells at any concentration | none of the cells were transduced |  |  |  |  | 
2 | NC(=O)c1cc(N2CC2)c([N+](=O)[O-])cc1[N+](=O)[O-] [CB1954, 5-(aziridin-1-yl)-2,4-dinitrobenzamide] |  |  | well-tolerated in man | 1 | cells are not killed | 90 | virus and CB1954-dose dependent killing

From patent publication US7674454B2, “Enzyme-prodrug therapy for prosthetic joint repair” (Innovata Limited, priority 2004, dated 2010)
